Our source for the IC50 values is patent US20060281763A1, “Carboxamide inhibitors of TGFbeta” (priority 2005, published 2006).

Each structure is given as a SMILES string.

For orientation: IC50 means the point on the concentration scale where inhibition reaches its midpoint.

The first test addresses T1, TGFβ R1 (Homo sapiens, UniProt P36897).
T1 sequence (P36897 34-503): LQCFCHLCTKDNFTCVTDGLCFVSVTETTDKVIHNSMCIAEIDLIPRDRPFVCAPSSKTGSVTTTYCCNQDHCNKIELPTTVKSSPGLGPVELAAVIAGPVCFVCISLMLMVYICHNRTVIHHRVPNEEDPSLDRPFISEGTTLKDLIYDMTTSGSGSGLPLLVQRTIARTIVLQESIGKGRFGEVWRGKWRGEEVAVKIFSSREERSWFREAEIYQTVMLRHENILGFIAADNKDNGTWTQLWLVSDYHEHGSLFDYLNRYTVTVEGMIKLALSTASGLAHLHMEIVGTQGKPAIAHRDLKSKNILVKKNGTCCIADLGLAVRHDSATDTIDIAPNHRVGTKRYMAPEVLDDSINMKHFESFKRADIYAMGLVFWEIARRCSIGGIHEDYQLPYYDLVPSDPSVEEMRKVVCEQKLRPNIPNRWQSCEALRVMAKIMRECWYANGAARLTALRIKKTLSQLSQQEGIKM
The test is described as follows: TGFβ R1 autophosphorylation protocol (33P-ATP, phosphocellulose filter plate). It counts as biochemical. Particulars: 10 uM ATP, 170 nM TGFβ R1, 20 minutes at room temperature, read-out: IC50 for Kinase Inhibition. The method, boiled down:
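Incorporation of 33P from γ-33P-ATP (10 uM ATP final) into the kinase itself (170 nM) measured by phosphocellulose capture and scintillation counting. Incubation 20 min at room temperature in 20 mM MOPS pH 7 with […]; final DMSO ≤1%.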
`COc1ccc(NC(=O)NCCNC(=O)c2cnccc2Nc2nc(-c3cc(Cl)ccc3F)ncc2OC)cc1` [Compound 79, 4-[2-(5-Chloro-2-fluoro-phenyl)-5-methoxy-pyrimidin-4-ylamino]-N-{2-[3-(4-methoxy-phenyl)-ureido]-ethyl}-nicotinamide]: the IC50 came to 350 nM.

`COc1cnc(-c2cc(Cl)ccc2F)nc1Nc1ccncc1C(=O)NCCCN` [Compound 100, N-(3-Amino-propyl)-4-[2-(5-chloro-2-fluoro-phenyl)-5-methoxy-pyrimidin-4-ylamino]-nicotinamide]: the half-maximal inhibitory concentration (IC50) is 30 nM.

Take `COc1cnc(-c2cc(Cl)ccc2F)nc1Nc1ccncc1C(=O)NCCNCCC1O[C@H](CO)[C@@H](O)[C@H](O)[C@@H]1O` (stereo partly shown) [Compound 151]: the 50% inhibitory concentration (IC50) came to 4 nM.

With `COc1cnc(-c2cc(Cl)ccc2F)nc1Nc1ccncc1C(=O)NCCNCC(F)(F)F` [Compound 103, 4-[2-(5-Chloro-2-fluoro-phenyl)-5-methoxy-pyrimidin-4-ylamino]-N-[2-(2,2,2-trifluoro-ethylamino)-ethyl]-nicotinamide], the 50% inhibitory concentration (IC50) was 130 nM.

For `COc1cnc(-c2cc(Cl)ccc2F)nc1Nc1ccncc1C(=O)N[C@@H]1CCNC1` [Compound 138, 4-[2-(5-Chloro-2-fluoro-phenyl)-5-methoxy-pyrimidin-4-ylamino]-N-pyrrolidin-3-yl-nicotinamide], the concentration for half-maximal inhibition (IC50) is 24 nM.

On to `COc1cnc(-c2cc(Cl)ccc2F)nc1Nc1ccncc1C(=O)NCCNC(=O)CC1O[C@H](CO)[C@@H](O)[C@H](O)[C@H]1O` (stereo partly shown) [Compound 147, 4-[2-(5-Chloro-2-fluoro-phenyl)-5-methoxy-pyrimidin-4-ylamino]-N-{2-[2-(3,4,5-trihydroxy-6-hydroxymethyl-tetrahydro-pyran-2-yl)-acatylamino]-ethyl}-nicotinamide], for which the 50% inhibitory concentration (IC50) worked out at 125 nM.

For the compound `CNC(=O)[C@@H]1CCCN1CCCNC(=O)c1cnccc1Nc1nc(-c2cc(Cl)ccc2F)ncc1OC` [Compound 122, 4-[2-(5-Chloro-2-fluoro-phenyl)-5-methoxy-pyrimidin-4-ylamino]-N-[3-(2-methylcarbamoyl-pyrrolidin-1-yl)-propyl]-nicotinamide], the half-maximal inhibitory concentration (IC50) was found to be 53 nM.

With `COc1cnc(-c2cc(Cl)ccc2F)nc1Nc1ccncc1C(=O)NCCNC(=O)COC1O[C@H](CO)[C@H](O)[C@H](O)[C@H]1O` (stereo partly shown) [Compound 159, 4-[2-(5-Chloro-2-fluoro-phenyl)-5-methoxy-pyrimidin-4-ylamino]-N-{2-[2-(3,4,5-trihydroxy-6-hydroxymethyl-tetrahydro-pyran-2-yloxy)-acetylamino]-ethyl}-nicotinamide], the IC50 was 58 nM.

For the compound `COc1cnc(-c2cc(Cl)ccc2F)nc1Nc1ccncc1C(=O)NCCCN/C(=N/C#N)N1CCOCC1` [Compound 43], the half-maximal inhibitory concentration (IC50) was found to be 60 nM.

On to `COc1cnc(-c2cc(Cl)ccc2F)nc1Nc1ccncc1C(=O)NCCN` [Compound 39, N-(2-Amino-ethyl)-4-[2-(5-chloro-2-fluoro-phenyl)-5-methoxy-pyrimidin-4-ylamino]-nicotinamide], for which the IC50 came out at 50 nM.

The same test, now with this note: 10 uM ATP, 170 nM TGFβ R1, room temperature 20 minutes, read-out: IC50 for Kinase Inhibition.
As to `CC(C)c1cnc(-c2cc(Cl)ccc2F)nc1Nc1ccncc1C(=O)NC[C@H](C)OC(=O)[C@@H](N)C(C)C` [Compound 206, 2-Amino-3-methyl-butyric acid 2-({4-[2-(5-chloro-2-fluoro-phenyl)-5-isopropyl-pyrimidin-4-ylamino]-pyridine-3-carbonyl}-amino)-1-methyl-ethyl ester], the 50% inhibitory concentration (IC50) turned out to be 72 nM.

Consider `CC(C)c1cnc(-c2cc(Cl)ccc2F)nc1Nc1ccncc1C(=O)NC1CC1CO` (stereo not shown) [Compound 179, 4-[2-(5-Chloro-2-fluoro-phenyl)-5-isopropyl-pyrimidin-4-ylamino]-N-(2-hydroxymethyl-cyclopropyl)-nicotinamide], for which the half-maximal inhibitory concentration (IC50) stood at 5 nM.

In the case of `CC(C)c1cnc(-c2cc(Cl)ccc2F)nc1Nc1ccncc1C(=O)N1CC[C@H](N)C1` [Compound 209, (3-Amino-pyrrolidin-1-yl)-{4-[2-(5-chloro-2-fluoro-phenyl)-5-isopropyl-pyrimidin-4-ylamino]-pyridin-3-yl}-methanone], the IC50 came to 68 nM.
